Consider 2 compounds from patent publication US6133311A, “Method for preventing or treating elevated blood lipid level-related diseases by administering natural phenolic compounds” (priority 1998, dated 2000).

The data set is described as follows: acute oral toxicity in mice. The data set is classed as in vivo, ICR mice. The following applies: for toxicity: oral, mouse, single dose 5,000 mg/kg. The method, then: Toxicity of Orally Administered tannin, gallic acid or ellagic acid
36 seven-week-old, specific pathogen-free ICR […] female mice each weighing about 25 to 29 g and 18 male mice each weighing about 34 to 38 9, were kept under an environment of 22±1° C., 55±5% relative humidity and 12L/12D photoperiod. Fodder (Cheiljedang Co., mouse and rat fodder) and water were sterilized and fed to the mice.
Tannin, gallic acid or ellagic acid purchased from Aldrich-Sigma Chemical Co. (St. Louis, Mo., U.S.A) was dissolved in 0.5% Tween 80 to a concentration of 500 mg/ml, and the solution was orally administered to the mice in an amount of 0.2 ml per 20 g of mouse body weight. […] Further, on the 10th day, the mice were sacrificed and the internal organs were visually examined.

For the compound `O=C(O)c1cc(O)c(O)c(O)c1` [Gallic acid, gallic acid], the toxicity entry is “no toxicity”. Besides, under “oral 5,000 mg/kg, 10 day test period”, the weight loss entry is given as “no weight loss”. Besides, under “oral 5,000 mg/kg, day 10”, the “pathological abnormality at autopsy” value was “had not developed any pathological abnormality” and the survival result was “All the mice were alive at day 10”.
On to tannin, for which the toxicity entry is recorded as “no toxicity”.
